One molecule from US20240415804A1, “METHOD OF TREATING PANCREATIC CANCER” (University of South Florida, priority 2022, published 2024) can be followed below.

One assay concerns iNOS. The assay can be described thus: Western blot of iNOS protein in tumors of KC-HPC mice. In kind it is in vivo, mouse. The conditions noted are these: KC-HPC-API vs KC-HPC mice. The protocol: The inventors then assessed the expression of CD40 (a T cell co-stimulation marker) on M1 TAM (gated as MHC-II^+ and CD206) within the tumor from KC-HPC vs. KC-HPC-API mice. […] Single-cell suspensions of BM, digested pancreatic tumors cells and UN-KC-6141 cells treated with API (40 μM) were lysed with radioimmunoprecipitation buffer (Sigma-Aldrich), quantified with a BCA Protein Assay kit (Thermo Fisher Scientific, Waltham, MA, USA), resolved by SDS-PAGE (Thermo Fisher Scientific) and transferred onto a nitrocellulose membrane as previously described. Membranes were probed with either anti-SHIP-1 (Santa Cruz Biotechnology, Dallas, TX, USA), anti-iNOS (Cell Signaling Technology) or anti-Bcl-2 (Cell Signaling Technology, Danvers, MA, USA), all at a dilution of 1:1000. All blots were re-probed with a housekeeping protein, HRP-conjugated anti-β-actin (Sigma-Aldrich), at a dilution of 1:20,000. Membranes were then probed with the respective secondary anti-mouse or rabbit IgG HRP-conjugated antibodies (1:1000) of SHIP-1 and iNOS. Detection of SHIP-1, iNOS and β-actin proteins was performed using Super Signal West Pico or Femto Chemiluminescent Substrates (Thermo Fisher Scientific) and then imaged on a Bio-Rad Chemi Doc XRS Imaging System. Normalized densitometric ratios (divided by β-actin) were determined by quantifying WB results using Image J.
Background: Immunoblotting shows a protein as a band on a membrane.

Another assay relates to Bcl-2. The assay can be described thus: Western blot of Bcl-2 protein in UN-KC-6141 cells. In kind it is cell-based, mouse. The conditions noted are these: API 40 μM. As to the method:
Single-cell suspensions of BM, digested pancreatic tumors cells and UN-KC-6141 cells treated with API (40 μM) were lysed with radioimmunoprecipitation buffer (Sigma-Aldrich), quantified with a BCA Protein Assay kit (Thermo Fisher Scientific, Waltham, MA, USA), resolved by SDS-PAGE (Thermo Fisher Scientific) and transferred onto a nitrocellulose membrane as previously described. Membranes were probed with either anti-SHIP-1 (Santa Cruz Biotechnology, Dallas, TX, USA), anti-iNOS (Cell Signaling Technology) or anti-Bcl-2 (Cell Signaling Technology, Danvers, MA, USA), all at a dilution of 1:1000. All blots were re-probed with a housekeeping protein, HRP-conjugated anti-β-actin (Sigma-Aldrich), at a dilution of 1:20,000. Membranes were then probed with the respective secondary anti-mouse or rabbit IgG HRP-conjugated antibodies (1:1000) of SHIP-1 and iNOS. Detection of SHIP-1, iNOS and β-actin proteins was performed using Super Signal West Pico or Femto Chemiluminescent Substrates (Thermo Fisher Scientific) and then imaged on a Bio-Rad Chemi Doc XRS Imaging System. Normalized densitometric ratios (divided by β-actin) were determined by quantifying WB results using Image J.

In a further assay the test system is UN-KC-6141 cells. Kind of assay: Apoptosis by flow cytometry (Annexin V and PI), UN-KC-6141. In kind it is cell-based, mouse. The conditions noted are these: API 10, 20, 30, 40, 50 μM, 24 h. The protocol: Panc02 and UN-KC-6141 cells were seeded in 6-well plates allowed to grow to 50-60% confluency. Cells were then treated with API at a dose-dependent concentration (10, 20, 30, 40, 50 μM) or DMSO (1%) as vehicle control and incubated for 24 h at 37° C. in a humidified atmosphere of 5% CO2. Cells were collected and stained with a FITC Annexin V Apoptosis Detection Kit I (BD Bioscience, San Jose, CA, USA) according to the manufacturer's instructions. Acquisition of samples was performed using a flow cytometer BD LSRII (BD Biosciences Immunocytometry Systems, San Jose, CA, USA). FlowJo v10.8 software (TreeStar Inc., Ashland, OR, USA) was used for data analysis.
On the technique in general: Flow cytometry measures light scatter and fluorescence of single cells or particles in a stream.

The next assay concerns miR-155. The assay can be described thus: miR-155 gene expression in tumors of HPC mice. Type of assay: in vivo, mouse. The conditions noted are these: API 25 mg/kg IP 3 times per week for 3-4 weeks, vs vehicle. As to the method:
Earlier studies have shown the anti-tumor activity of API in pre-clinical experimental models of cancer^41, 62-68. The inventors have reported that API increased survival and reduced tumor growth in a heterotopic (H) mouse model of PC (HPC)^55. To investigate if API targets miR-155 and regulates SHIP-1 in the TME of an HPC mouse model, HPC mice were treated with API at a dose of 25 mg/kg (IP) 3 times per week for 3-4 weeks. […] All female C57BL/6 mice (6-8 weeks of age) described in this study were purchased from Envigo (Indianapolis, IN, USA) and were acclimatize for one week in a pathogen-free animal facility (University of South Florida (USF) vivarium) before injections with PC cells. To generate heterotopic pancreatic cancer (HPC) models, mice were subcutaneously injected with 1.5×10^5 murine Panc02 (HPC mice) or 5×10^6 murine UN-KC-6141 cells (KC-HPC mice), in sterile 1× phosphate buffer saline (PBS), in the lower ventral abdomen, while control (CTRL) mice received sterile 1×PBS. […] Relative expression of miR-155 was calculated using the comparative […] method normalized to a mouse endogenous control gene snoRNA202 and human endogenous control gene U6 (Assay IDs: 001232 and 001093).

As to `O=c1cc(-c2ccc(O)cc2)oc2cc(O)cc(O)c12` [API, 40,5,7-Trihydroxyflavone, 5,7-Dihydroxy-2-(4-hydroxyphenyl)-4-benzopyrone], the “iNOS protein expression in tumor” value in the assay on iNOS is listed as “significant increase”. In addition, the “Bcl-2 protein expression (WB)” value in the assay with Bcl-2 is recorded as “significant decrease”. In addition, the “apoptosis (Annexin V and PI)” value in the assay on UN-KC-6141 cells is on record as “induces apoptosis”. Besides, in the assay with miR-155, the “miR-155 gene expression in tumor” value was “significantly reduced”.
